Results on three compounds are retold here after patent publication US11247976B2, “Synthetic ligands that modulate the activity of the RhlR quorum sensing receptor” (Wisconsin Alumni Research Foundation, priority 2016, dated 2022).

The structures appear in SMILES notation. “Also recorded” adds a separate entry of the source. Marks after values point to notes of the source that are not given here.

Data set [1] addresses T1, RhlR (Pseudomonas aeruginosa, UniProt P54292).
T1 construct: expressed in transfected cells; host or cells: E. coli JLD271 (ΔsdiA) with pJN105R2 (arabinose-induced) and pSC11-rhlI*
In words: E. coli RhlR reporter agonism assay (JLD271/pJN105R2/pSC11-rhlI*). In kind it is cell-based, P. aeruginosa. The settings on record: for activation at 10 µM: compound at 10 μM, RhlR activity relative to 1 mM BHL. Here is the method:
(§1) All media and reagents for bacterial culture were purchased from commercial sources. Bacteria were cultured in Luria-Bertani broth (LB) at 37° C. with shaking at 200 rpm unless otherwise noted. The bacterial reporter strains used for this study were (i) the heterologous E. coli strain JLD271 (ΔsdiA) harboring the RhlR expression plasmid pJN105R2 and the rhlI-lacZ transcriptional fusion reporter pSC11-rhlI*, (ii) the heterologous E. coli strain JLD271 (ΔsdiA) harboring the LasR expression plasmid pJN105L and the […] transcriptional fusion reporter pSC11, and (iii) the P. aeruginosa strain PAO-JP2 (ΔlasrhlI) harboring the rhlI-gfp transcriptional fusion reporter prhlI-LVAgfp. Reporter strains JLD271/pJN105R2/pSC11-rhlI* and JLD271/pJN105L/pSC11 were grown in LB containing 100 μg/mL ampicillin and 10 μg/mL gentamicin. Freezer stocks of bacterial strains were maintained at −80° C. in 1:1 LB:50% glycerol.
(§2) To evaluate the modulatory activities of library compounds on RhlR and LasR using E. coli reporters, the strains JLD271/pJN105R2/pSC11-rhlI* and JLD271/pJN105L/pSC11 were used, respectively, as previously described.^38, 51 The following modifications were used in the RhlR agonism reporter assay, non-native compounds (10 μM or 1 mM) were compared to 1 mM BHL as the positive control. Briefly, a subculture was prepared by diluting an overnight culture 1:10 with fresh media containing 100 μg/mL ampicillin and 10 μg/mL gentamicin, and was incubated until it had grown to OD600=0.45. In all assays, L-arabinose was added to a final concentration of 4 mg/mL to induce RhlR expression. For RhlR agonism assays, activities of test compounds were measured relative to 1 mM BHL (the concentration required to induce a maximal level of RhlR activity). For RhlR antagonism assays, test compounds were competed against a concentration of BHL approximately equal to its EC50 value (10 μM). Activity was measured relative to 10 μM BHL. Inhibition was calculated by subtracting 100% from the relative activity value. Thus, 0% inhibition mimics represents no competitive displacement of 10 μM BHL by a test compound. In all assays, modifications were made to the standard Miller assay protocol to accommodate the use of the chlorophenol red-β-D-galactopyranoside (CPRG) β-galactosidase substrate. After cell lysis, 150 μL of the aqueous layer was transferred from each well of a solvent-resistant 96-well microtiter plate to the wells of a new clear, flat-bottom 96-well microtiter plate. CPRG (4 mg/mL in phosphate-buffered saline) was added to each well in 25 μL volumes. Plates were incubated at 30° C. until the positive control wells developed a red color (approximately 30 min). The amount of processed CPRG substrate was assessed by measuring the absorbance of each well at 570 nm. Enzymatic activity was calculated using the following equation: adjusted Miller units=1000·Abs570/(OD600·t·V),
(§3) where t is the incubation time of substrate with lysate and V is the volume of culture lysed.
Because LuxR-type receptors are often unstable in solution, preventing the use of in vitro assays to directly assess small molecule agonism and antagonism, reporter gene assays represent a standard method for screening small-molecule libraries for LuxR-type receptor modulation. Previously reported strains for this purpose were used in the current study.^38 Synthetic N-butanoyl L-homoserine lactone (BHL), the native ligand of RhlR, was used as the positive control for receptor activation. Commonly, agonists are measured relative to maximum possible receptor activation within a particular assay medium;^40 because the dose-response curve of BHL is distinctly shallow in these RhlR reporters, a high concentration of BHL is required to maximally activate RhlR. In this study, activation of compounds was measured relative to that elicited by 1 mM BHL (the concentration of BHL used causes no aberrant growth effects in the reporter strain). […]

Data set [2] concerns the target T1, RhlR. In words: E. coli RhlR reporter antagonism assay vs 10 μM BHL (JLD271/pJN105R2/pSC11-rhlI*). The settings on record: for Maximum Inhibition (%): E. coli reporter, relative to activation of 10 μM BHL alone; for inhibition at 10 µM: read-out: % inhibition (10 μM), compound at 10 μM in the presence of 10 μM BHL; for inhibition at 10 µM / inhibition at 1000 µM: negative = agonism stronger than 10 μM BHL alone; for inhibition at 1000 µM: read-out: % inhibition (1 mM), compound at 1 mM in the presence of 10 μM BHL. The data set is classed as cell-based, P. aeruginosa. Here is the method: as §1
as §2, with “For RhlR antagonism assays, test compounds were competed against a concentration of BHL approximately equal to its EC50 value (10 μM).” left out
as §3
The RhlR-modulatory activity of the J library compounds was assessed in a heterologous reporter strain (E. coli JLD271 harboring plasmids pJN105R2 and pSC11-rhlI*) in order to isolate the RhlR receptor from upstream QS regulation (e.g. regulation by LasR). Thus, the extent to which compounds were directly modulating RhlR could be determined. These assays were performed by incubating compound-treated, mid-log phase E. coli reporter cells in 96-well microtiter plates, followed by Miller assay evaluation of ß-galactosidase activity.
RhlR agonism and antagonism screens of each compound were performed initially at 10 μM.

Data set [3] concerns the target T1, RhlR. In words: P. aeruginosa RhlR reporter agonism assay (PAO-JP2/prhlI-LVAgfp). The data set is classed as cell-based. The following applies: P. aeruginosa reporter compared with E. coli reporter. As for the experimental part:
as §1
(§4) To evaluate the RhlR-modulatory activities of selected compounds in P. aeruginosa, the ΔlasIrhlI strain PAO-JP2 harboring plasmid prhlI-LVAgfp was used as previously reported.^38 Briefly, a subculture was prepared by diluting an overnight culture 1:100 in fresh LB and was grown to OD600=0.3. […] Subculture was treated with 100 nM OdDHL (to induce native expression of RhlR) by adding the appropriate amount of OdDHL stock solution in DMSO. The subculture was then dispensed ([…] aliquots) into each synthetic compound-containing well of the microtiter plate.
(§5) Plates were incubated at 37° C. for 6 h, and GFP production was monitored by using a Synergy 2 plate reader (λex=500 nm, λem=540 nm; BioTek, Winooski, Vt.) and quantified with Gen5 1.05 software (BioTek). The final OD600 for each well was measured to normalize GFP production to cell density. All synthetic compounds were tested in triplicate, and three separate trials were performed with unique cultures. Agonism dose-response analyses were performed by testing compounds over a range of concentrations with the RhlR reporter.
Library compounds J18 and J24, as well as controls BHL and S4, were evaluated for potency in the native genetic background of RhlR by using the P. aeruginosa strain PAO-JP2 (ΔlasIrhlI) harboring the RhlR reporter plasmid prhlI-LVAgfp (Table 3). Because the production of RhlR is dependent on LasR (in LB medium), all assays were performed in the presence of 100 nM OdDHL, enabling immediate transcription of RhlR via LasR activation. […] All compounds also retained similar potencies when screened in the P. aeruginosa background.

For the next data set, the target named is T2, LasR (Pseudomonas aeruginosa, UniProt P25084).
T2 construct: expressed in transfected cells; host or cells: E. coli JLD271 (ΔsdiA) with pJN105L and pSC11
In words: Selectivity of RhlR agonism over LasR agonism (E. coli LasR reporter JLD271/pJN105L/pSC11). The data set is classed as cell-based, P. aeruginosa. The settings on record: RhlR % activity divided by LasR % activity, > = negligible activity in LasR reporter. Here is the method: as §1, §2
LasR assays were processed using the protocol for the substrate ortho-nitrophenyl-β-galactoside (ONPG) as previously described elsewhere.^53; and LasR antagonism assays were performed versus the EC50 for OdDHL (2 nM).
The selectivity of certain compounds for RhlR over LasR was measured using a LasR reporter strain (details above). Table 6 provides a comparison of selectivity of RhlR agonism over LasR agonism for exemplary compounds. Table 7 provides a comparison of selectivity of RhlR antagonism over LasR antagonism for exemplary compounds.

Data set [4] has as its target T1, RhlR. In words: P. aeruginosa RhlR reporter agonism assay (PAO-JP2/prhlI-LVAgfp). In kind it is cell-based.
The target of data set [5] is T1, RhlR. In words: P. aeruginosa RhlR reporter antagonism assay vs 10 μM BHL (PAO-JP2/prhlI-LVAgfp). The data set is classed as cell-based. Here is the method: FIGS. 10A and B illustrate exemplary dose-response curves for RhlR antagonism in the E. coli JLD271/pJN105R2/pSC11-rhlI* reporter strain vs. 10 μM BHL (FIG. 10A) and in the P. aeruginosa PAO-JP2/prhlI-LVAgfp reporter strain vs. 10 μM BHL (FIG. 10B).
as §4, §5

Data set [6] is described as follows: Hydrolytic stability in buffers of varying pH by HPLC. In kind it is physicochemical. The settings on record: room temperature. Here is the method:
To assess the relative stability of the thiolactone and homoserine lactone moieties, stability studies were performed as reported previously,^53 with the following changes. Compounds RN22 and E22 (50 μM) were dissolved in either 1 mM 2-(N-morpholino)-ethanesulfonic acid (MES) buffer at pH 6, or 1 mM tris(hydroxymethyl)-aminomethane (TRIS) buffer at pH 7, pH 8, or pH 9. Solutions were placed static at room temperature, and 150 μL aliquots were taken every two hours for eight hours, then again at 24 hours. Samples were immediately separated via HPLC, and the area under the curve (AUC) at 220 nm was calculated and compared to the area at t=0. […] Degradation of both compounds to the hydrolysis product was confirmed via mass spectrometry of the resulting byproduct peak.
P. aeruginosa media is observed to become more alkaline over time, making the hydrolytic instability of the homoserine lactone head group a concern in developing AHL-type modulators for use in the wild-type organism. […] To evaluate their stability in a more direct assay, the stability of thiolactone RN22 relative to its lactone homolog E22 was monitored over time and at varying pH values using HPLC. The amount of compound RN22 remaining over 24 h was compared to E22. […] Degradation products were confirmed to be the hydrolyzed lactone head groups via mass spectroscopy.

The mark [7] stands for this setting: read-out: Maximum Activation (%).

T1 sequence (P54292 whole entry): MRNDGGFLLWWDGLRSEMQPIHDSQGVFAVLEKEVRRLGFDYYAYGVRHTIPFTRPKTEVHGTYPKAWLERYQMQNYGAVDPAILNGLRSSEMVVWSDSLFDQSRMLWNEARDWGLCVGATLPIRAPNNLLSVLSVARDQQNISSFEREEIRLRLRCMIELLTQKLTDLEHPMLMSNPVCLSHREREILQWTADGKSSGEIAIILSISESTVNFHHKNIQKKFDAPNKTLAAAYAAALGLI
T2 sequence (P25084 whole entry): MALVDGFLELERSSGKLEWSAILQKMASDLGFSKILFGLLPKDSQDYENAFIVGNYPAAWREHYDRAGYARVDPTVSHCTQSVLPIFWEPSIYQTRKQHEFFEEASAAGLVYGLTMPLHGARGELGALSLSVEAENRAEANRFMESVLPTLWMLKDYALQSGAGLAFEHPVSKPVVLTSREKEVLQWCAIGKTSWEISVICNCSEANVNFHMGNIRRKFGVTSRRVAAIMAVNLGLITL

Compound `O=C(NC1CCCC1)C1CCC1` [RN13] yielded an activation at 10 µM at RhlR [1] (E. coli reporter) of 0%. In addition, at RhlR [2], the IC50 (commonly the concentration at which inhibition is half-maximal) came to 26.7 µM; the “Maximum Inhibition (%)” value was 32%; the inhibition – broadly, the drop in the measured response relative to a control, in per cent – at 10 µM is 24%; the inhibition at 1000 µM amounted to 25%. Moreover, the “RhlR antagonist activity in words” value at RhlR [2] (E. coli reporter vs 10 μM BHL) is reported as “potent antagonist activity; also recorded: two-fold increased potency as measured by IC50 over parent compound RN4; also recorded: undesirable non-monotonic behavior”. At RhlR [3], the “RhlR agonist potency in words” value was “maintained activity between the two different reporters”.

Turning to `O=C(N[C@H]1CCOC1=O)C1CCC1` [Compound J24, cyclobutanoyl AHL], the concentration for a half-maximal effect (EC50) – broadly, the concentration at which the effect is half-maximal – at RhlR [1] amounted to 1.78 µM; on RhlR [4], 1.41 µM. Also, the activation at 10 µM on RhlR [1] (E. coli reporter) turned out to be 79%. For the same compound, at RhlR [1] (dose-response, E. coli reporter), the “RhlR agonist potency in words” value was “significantly more potent than BHL; also recorded: rivaled in potency that of S4”. Further, the Emax at RhlR [1] (setting [7]) is 100%; at RhlR [4] (setting [7]) it was 95%. In addition, the “RhlR agonist activity in words” value on RhlR [1] (single-concentration screen at 10 μM, E. coli reporter) is recorded as “strong”. The inhibition at 10 µM at RhlR [2] was -66%. The inhibition at 1000 µM at RhlR [2] is -110%. Further, the “Fold selectivity of RhlR agonists over LasR agonism” value on LasR (tested concentration 1 mM) is reported as 48 fold; at LasR (tested concentration 10 μm) it was >79^b fold.

`O=C(COc1ccc(I)cc1)NC1CCOC1=O` (stereo not shown) [Compound E22, reference compound]: the concentration for half-maximal inhibition (IC50) is 17.3 µM at RhlR [2] and 23.9 µM at RhlR [5]. Moreover, the “Maximum Inhibition (%)” value on RhlR [2] is listed as 74%; on RhlR [5] (P. aeruginosa reporter, relative to activation of 10 μM BHL alone) it was 96%. Further, the “fold change of IC50 from E. coli to P. aeruginosa reporter” value at RhlR [5] (vs 10 μM BHL) is about 1.4 fold. For the same compound, the “increase of maximum inhibition from E. coli to P. aeruginosa reporter” value at RhlR [5] (vs 10 μM BHL) is “more than 20%”. The half-life (as a rule, how long it takes for the measured level to halve) at 50 μM in data set [6] (pH 6, 1 mM MES buffer) was 182 h; in data set [6] (pH 7, 1 mM TRIS buffer), 48.1 h; in data set [6] (pH 8, 1 mM TRIS buffer) it was 10.1 h; in data set [6] (pH 9, 1 mM TRIS buffer), 2.3 h.
